In ChEMBL document CHEMBL1154508, “Discovery of GSK345931A: An EP(1) receptor antagonist with efficacy in preclinical models of inflammatory pain” (Bioorg Med Chem Lett, 2009):

Columns and labels:
Liver microsomes [1] = experiment: Metabolic stability assessed as intrinsic clearance per gram of human liver microsomes; format: ADME, Microsome
Liver microsomes [2] = experiment: Metabolic stability assessed as intrinsic clearance per gram of rat liver microsomes; format: ADME, Microsome
[3] = target: T1, Prostaglandin E2 receptor EP1 subtype (Homo sapiens, UniProt P34995); experiment: Antagonist activity at EP1 receptor assessed as calcium mobilization by FLIPR assay; format: functional
T1 sequence (P34995 whole entry): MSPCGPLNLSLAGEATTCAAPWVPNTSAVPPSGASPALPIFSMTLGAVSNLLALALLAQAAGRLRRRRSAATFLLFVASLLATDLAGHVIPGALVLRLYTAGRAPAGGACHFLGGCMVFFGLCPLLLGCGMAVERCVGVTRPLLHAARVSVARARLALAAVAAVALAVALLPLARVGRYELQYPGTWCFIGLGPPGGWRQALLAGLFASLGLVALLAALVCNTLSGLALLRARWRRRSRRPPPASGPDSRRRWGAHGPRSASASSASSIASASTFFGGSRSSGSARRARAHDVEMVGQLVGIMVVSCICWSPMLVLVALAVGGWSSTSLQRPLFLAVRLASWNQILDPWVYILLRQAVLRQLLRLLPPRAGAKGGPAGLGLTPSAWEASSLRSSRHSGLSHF

Cytochrome P450 2C19 = Cytochrome P450 2C19 (Homo sapiens, UniProt P33261); experiment: Inhibition of CYP2C19; format: ADME
Cytochrome P450 2D6 = Cytochrome P450 2D6 (Homo sapiens, UniProt P10635); experiment: Inhibition of CYP2D6; format: ADME
Cytochrome P450 1A2 = target: T2, Cytochrome P450 1A2 (Homo sapiens, UniProt P05177); experiment: Inhibition of CYP1A2; format: ADME
T2 sequence (P05177 whole entry): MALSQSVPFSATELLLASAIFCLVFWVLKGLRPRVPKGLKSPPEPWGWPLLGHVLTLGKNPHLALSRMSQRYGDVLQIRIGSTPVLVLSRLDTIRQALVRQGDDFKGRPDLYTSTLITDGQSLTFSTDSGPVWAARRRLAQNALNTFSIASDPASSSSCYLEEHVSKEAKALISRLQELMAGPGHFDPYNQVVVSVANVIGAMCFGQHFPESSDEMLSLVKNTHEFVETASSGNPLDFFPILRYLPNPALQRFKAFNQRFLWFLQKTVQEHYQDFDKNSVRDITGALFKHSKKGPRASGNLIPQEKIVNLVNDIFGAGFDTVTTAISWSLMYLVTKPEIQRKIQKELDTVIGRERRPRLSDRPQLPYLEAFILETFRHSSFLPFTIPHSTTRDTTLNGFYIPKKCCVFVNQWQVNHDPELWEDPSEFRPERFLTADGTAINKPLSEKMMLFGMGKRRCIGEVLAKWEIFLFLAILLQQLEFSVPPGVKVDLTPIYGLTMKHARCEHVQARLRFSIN

[4] = Ratio of drug level in rat brain to blood at 0.28 mg/kg/hr, iv for 18 hrs at steady state; format: ADME, organism-based; parameters: route intravenous
Cytochrome P450 2C9 = Cytochrome P450 2C9 (Homo sapiens, UniProt P11712); experiment: Inhibition of CYP2C9; format: ADME
Cytochrome P450 3A4 = Cytochrome P450 3A4 (Homo sapiens, UniProt P08684); experiment: Inhibition of CYP3A4; format: ADME
[5] = target: T1, Prostaglandin E2 receptor EP1 subtype; experiment: Binding affinity to EP1 receptor

Cytochrome P450 2C9, sequence (P11712 whole entry): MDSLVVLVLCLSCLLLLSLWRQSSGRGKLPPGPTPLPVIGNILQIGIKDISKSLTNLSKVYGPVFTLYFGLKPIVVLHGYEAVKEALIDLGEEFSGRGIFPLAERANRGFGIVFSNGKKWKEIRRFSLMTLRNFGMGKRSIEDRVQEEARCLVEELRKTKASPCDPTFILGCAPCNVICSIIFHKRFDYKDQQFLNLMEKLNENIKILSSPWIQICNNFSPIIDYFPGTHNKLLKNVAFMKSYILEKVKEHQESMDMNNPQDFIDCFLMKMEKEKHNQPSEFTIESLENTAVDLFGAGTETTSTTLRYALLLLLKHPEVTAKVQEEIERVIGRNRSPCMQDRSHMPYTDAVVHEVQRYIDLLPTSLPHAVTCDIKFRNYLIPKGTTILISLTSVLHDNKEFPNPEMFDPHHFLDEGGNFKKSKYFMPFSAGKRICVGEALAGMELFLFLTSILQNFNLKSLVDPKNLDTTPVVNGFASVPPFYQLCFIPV
Cytochrome P450 2C19, sequence (P33261 whole entry): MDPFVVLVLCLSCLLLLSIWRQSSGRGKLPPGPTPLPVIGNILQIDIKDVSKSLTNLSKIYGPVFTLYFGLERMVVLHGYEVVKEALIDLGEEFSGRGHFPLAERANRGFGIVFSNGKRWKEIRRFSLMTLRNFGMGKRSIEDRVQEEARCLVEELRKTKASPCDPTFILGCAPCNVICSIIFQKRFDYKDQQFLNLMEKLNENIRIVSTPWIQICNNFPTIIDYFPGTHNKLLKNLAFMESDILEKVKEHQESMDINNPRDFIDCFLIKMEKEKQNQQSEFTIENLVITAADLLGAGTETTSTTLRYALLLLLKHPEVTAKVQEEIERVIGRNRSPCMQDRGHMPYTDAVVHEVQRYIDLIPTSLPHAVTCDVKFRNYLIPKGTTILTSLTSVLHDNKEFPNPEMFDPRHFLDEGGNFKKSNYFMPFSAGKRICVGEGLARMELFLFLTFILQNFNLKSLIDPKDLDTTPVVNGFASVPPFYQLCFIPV
Cytochrome P450 3A4, sequence (P08684 whole entry): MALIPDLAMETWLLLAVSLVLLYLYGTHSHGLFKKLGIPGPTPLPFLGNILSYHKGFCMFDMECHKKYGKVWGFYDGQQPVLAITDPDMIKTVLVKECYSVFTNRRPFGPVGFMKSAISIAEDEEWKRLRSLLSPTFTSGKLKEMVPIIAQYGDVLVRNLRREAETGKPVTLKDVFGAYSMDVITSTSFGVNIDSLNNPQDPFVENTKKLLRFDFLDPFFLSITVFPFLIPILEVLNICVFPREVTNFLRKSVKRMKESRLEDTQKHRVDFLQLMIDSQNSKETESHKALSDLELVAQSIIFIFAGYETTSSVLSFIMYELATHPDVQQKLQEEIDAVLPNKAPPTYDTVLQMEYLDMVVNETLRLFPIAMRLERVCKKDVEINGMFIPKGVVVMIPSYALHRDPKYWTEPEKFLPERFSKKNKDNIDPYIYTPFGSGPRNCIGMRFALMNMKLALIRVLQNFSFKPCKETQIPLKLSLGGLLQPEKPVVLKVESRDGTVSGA
Cytochrome P450 2D6, sequence (P10635 whole entry): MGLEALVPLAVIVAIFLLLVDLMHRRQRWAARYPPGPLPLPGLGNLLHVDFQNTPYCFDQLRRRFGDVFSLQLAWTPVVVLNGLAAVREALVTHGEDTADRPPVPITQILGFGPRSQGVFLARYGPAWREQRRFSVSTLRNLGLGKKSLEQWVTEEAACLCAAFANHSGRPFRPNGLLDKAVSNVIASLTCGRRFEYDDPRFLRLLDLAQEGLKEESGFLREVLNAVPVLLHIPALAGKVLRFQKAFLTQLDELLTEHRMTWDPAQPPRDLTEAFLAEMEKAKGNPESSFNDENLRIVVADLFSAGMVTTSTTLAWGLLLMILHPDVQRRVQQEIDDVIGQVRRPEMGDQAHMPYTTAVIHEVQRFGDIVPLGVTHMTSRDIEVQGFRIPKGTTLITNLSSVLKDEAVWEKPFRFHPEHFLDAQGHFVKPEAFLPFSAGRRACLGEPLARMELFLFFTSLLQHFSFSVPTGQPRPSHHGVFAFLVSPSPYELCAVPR

Structure (SMILES)	IC50 [5]	further results
O=C(O)c1cccc(-c2ccccc2-c2cc(Cl)ccc2OCc2ccccc2)c1	–	CL (Liver microsomes [1]): < 0.5 mL/min/g; CL (Liver microsomes [2]): <= 0.5 ml/min/g; Ki [3]: 31.6 nM
O=C(O)c1cccc(C2=C(c3cc(Cl)ccc3OCc3ccc(F)cc3F)CCC2)n1	–	IC50 (Cytochrome P450 2C19): 62000 nM; IC50 (Cytochrome P450 2D6): > 100000 nM; IC50 (Cytochrome P450 1A2): > 100000 nM; Kp at 18 h [4]: 0.2; IC50 (Cytochrome P450 2C9): 25000 nM; IC50 (Cytochrome P450 3A4): 89000 nM
CC(=O)Nc1cc(C(=O)O)cc(-c2ccccc2-c2cc(Cl)ccc2OCc2ccccc2)c1	10 nM	–
CCC(=O)Nc1cc(C(=O)O)cc(-c2ccccc2-c2cc(Cl)ccc2OCc2ccccc2)c1	6.31 nM	–
CCCOc1ccc(Cl)cc1-c1ccccc1-c1cccc(C(=O)O)n1	251 nM	–
O=C(O)c1cccc(-c2cc(Cl)ccc2-c2cc(Cl)ccc2OCc2ccccc2)c1	> 1000 nM	–
O=C(O)c1ccccc1-c1ccccc1-c1cc(Cl)ccc1OCc1ccccc1	20 nM	–
O=C(O)c1ccc(-c2ccccc2-c2cc(Cl)ccc2OCc2ccccc2)cc1	794 nM	–
O=C(O)c1cccc(-c2ccccc2-c2cc(Cl)ccc2OCc2ccc(F)cc2)n1	5.01 nM	–
O=C(O)c1cc(-c2ccccc2-c2ccccc2OCc2ccccc2)ccc1Cl	126 nM	–
Cc1cccc(-c2cc(Cl)ccc2OCc2ccccc2)c1-c1cccc(C(=O)O)c1	100 nM	–
CC(C)C(=O)Nc1cc(C(=O)O)cc(-c2ccccc2-c2cc(Cl)ccc2OCc2ccccc2)c1	10 nM	–
COCC(=O)Nc1cc(C(=O)O)cc(-c2ccccc2-c2cc(Cl)ccc2OCc2ccccc2)c1	3.98 nM	–
O=C(O)c1cccc(-c2ccccc2-c2cc(Cl)ccc2OCC2CCCC2)n1	158 nM	–
O=C(O)c1ccc(F)c(-c2ccccc2-c2ccccc2OCc2ccccc2)c1	79.4 nM	–
O=C(O)c1cccc(-c2ccccc2-c2cc(Cl)ccc2OCc2ccccc2F)n1	39.8 nM	–
O=C(O)c1cccc(-c2ccccc2-c2ccc(Cl)cc2OCc2ccccc2)c1	316 nM	–
Cc1ccc(-c2cccc(C(=O)O)c2)c(-c2cc(Cl)ccc2OCc2ccccc2)c1	> 1000 nM	–
Cc1ccc(-c2cc(Cl)ccc2OCc2ccccc2)c(-c2cccc(C(=O)O)c2)c1	> 1000 nM	–
O=C(O)c1cccc(-c2ccccc2-c2cc(Cl)ccc2OCc2c(F)cc(F)cc2F)n1	12.6 nM	–
O=C(O)c1cccc(-c2ccccc2-c2cc(Cl)ccc2OCc2ccc(Br)cc2F)n1	50.1 nM	–
O=C(O)c1cccc(-c2ccccc2-c2cc(Cl)ccc2OCc2ccc(Cl)cc2F)n1	20 nM	–
CCCCOc1ccc(Cl)cc1-c1ccccc1-c1cccc(C(=O)O)n1	100 nM	–
O=C(O)c1cccc(-c2ccccc2-c2cc(Cl)ccc2OCc2ccc(F)cc2Cl)n1	63.1 nM	–
O=C(O)c1cc(F)cc(-c2ccccc2-c2ccccc2OCc2ccccc2)c1	63.1 nM	–
O=C(O)c1cccc(-c2ccccc2-c2cc(Cl)ccc2OCc2ccc(F)cc2F)n1	3.98 nM	–
Cc1c(C(=O)O)cccc1-c1ccccc1-c1ccccc1OCc1ccccc1	501 nM	–
O=C(O)c1cccc(-c2ccccc2-c2cc(Cl)ccc2OCc2ccccc2)n1	10 nM	–
CCCC(=O)Nc1cc(C(=O)O)cc(-c2ccccc2-c2cc(Cl)ccc2OCc2ccccc2)c1	2 nM	–
O=C(O)c1cccc(-c2ccccc2-c2ccccc2OCc2ccccc2)c1	20 nM	–
